In assay [1] the target is biotinylated human IL-17A / AF647-labeled human IL-17RA (Homo sapiens, UniProt Q16552). Description: Human IL-17A×IL-17RA TR-FRET assay. Particulars: TR-FRET, 5 nM IL-17A, 30 nM IL-17RA; read-out: IL17AA FRET/ IL17Rawt IC50. The format is binding. The method, boiled down: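 Compounds tested in duplicate at each concentration; neutral controls contain all components with DMSO in place of compound.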
On the technique in general: Time-resolved FRET reads energy transfer from a long-lived donor to a nearby acceptor.

The target of assay [2] is recombinant human IL-17AA (Homo sapiens, UniProt Q16552). Description: IL-6 release from NHDF cells, IL-17AA plus TNF-α stimulation. It is filed as cell-based. To be noted: NHDF cells, IL-17AA 30 pM + TNF-α 6 pM, 24 hours, IL-6 by ELISA; read-out: IL17AA + TNF IC50 IL-6. In outline:
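ELISA measured IL-6 in supernatants after 24 h at 37° C of NHDF cells with a compound/cytokine cocktail, pre-mixed 30 min at room temperature. Duplicates; 0.1% DMSO or 20% plasma final. IC50 from IL-6 remaining after subtracting the TNF-α-alone signal.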

The values that follow come from US12600728B2, “Interleukin-17 inhibitors” (priority 2020, dated 2026).

Chain of biotinylated human IL-17A / AF647-labeled human IL-17RA (Q16552 24-155): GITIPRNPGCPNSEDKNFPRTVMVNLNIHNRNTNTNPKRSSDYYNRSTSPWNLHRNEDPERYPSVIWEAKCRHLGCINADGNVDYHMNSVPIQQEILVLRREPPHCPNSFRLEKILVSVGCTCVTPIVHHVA
Chain of recombinant human IL-17AA (Q16552 24-155): as above

Regarding `Cc1c(-c2ccc(NC(=O)[C@@H](NC(=O)c3ccnn3C)[C@H]3CCCC(F)(F)C3)cc2)c(C(F)(F)F)cc[n+]1[O-]` [Example 183, 3-(4-((S)-2-((S)-3,3-difluorocyclohexyl)-2-(1-methyl-1H-pyrazole-5-carboxamido)acetamido)phenyl)-2-methyl-4-(trifluoromethyl)pyridine 1-oxide], the IC50 in assay [1] was determined as 54.1 nM; in assay [2], 42 nM.

Take `CC(=O)N1CCn2c(ccc2C(=O)N[C@H](C(=O)Nc2ccc(-c3c(Cl)cc[n+]([O-])c3C)cc2F)C2CCCCC2)C1` [Example 184, (S)-3-(4-(2-(2-acetyl-1,2,3,4-tetrahydropyrrolo[1,2-a]pyrazine-6-carboxamido)-2-cyclohexylacetamido)-3-fluorophenyl)-4-chloro-2-methylpyridine 1-oxide]: the results for the IC50 in assay [1] and in assay [2] were 59.9 nM and 11 nM, respectively.

With `CC(=O)N1CCn2ccc(C(=O)N[C@H](C(=O)Nc3ccc(-c4c(C)cc[n+]([O-])c4C)cc3)C3CCCCCC3)c2C1` [Example 185, (S)-3-(4-(2-(2-acetyl-1,2,3,4-tetrahydropyrrolo[1,2-a]pyrazine-8-carboxamido)-2-cycloheptylacetamido)phenyl)-2,4-dimethylpyridine 1-oxide], the values for the IC50 in assay [1] and in assay [2] were 77.1 nM and 9.75 nM, respectively.

Take `Cc1c(-c2ccc(NC(=O)C(NC(=O)c3ccc4n3CCNC4)C3CCCc4ccccc43)cc2F)c(Cl)cc[n+]1[O-]` [Example 186, 4-chloro-3-(2-fluoro-4-((S)-2-((S)-1,2,3,4-tetrahydronaphtha]en-1-yl)-2-(1,2,3,4-tetrahydropyrrolo[1,2-a]pyrazine-6-carboxamido)acetamido)phenyl)-2-methylpyridine 1-oxide]: the results for the IC50 in assay [1] and in assay [2] were 81.5 nM and 34 nM, respectively.

Regarding `CC(=O)N1CCn2c(ccc2C(=O)N[C@H](C(=O)Nc2ccc(-c3c(Cl)cc[n+]([O-])c3C)c(F)c2)C2CCCCC2)C1` [Example 187, 3-(4-((S)-2-(2-acetyl-1,2,3,4-tetrahydropyrrolo[1,2-a]pyrazine-6-carboxamido)-2-cyclohexylacetamido)-2-fluorophenyl)-4-chloro-2-methylpyridine 1-oxide], the IC50 was 85.4 nM in assay [1] and 17 nM in assay [2].

Consider `CC(=O)N1CCn2c(ccc2C(=O)N[C@H](C(=O)Nc2ccc(-c3c(C)cc[n+]([O-])c3C)cc2)C2CCCCCC2)C1` [Example 188, (S)-3-(4-(2-(2-acetyl-1,2,3,4-tetrahydropyrrolo[1,2-a]pyrazine-6-carboxamido)-2-cycloheptylacetamido)phenyl)-2,4-dimethylpyridine 1-oxide], for which the IC50 in assay [1] came out at 104 nM; in assay [2], 6.05 nM.

As for `Cc1cc[n+]([O-])c(C)c1-c1ccc(NC(=O)[C@@H](NC(=O)c2ccn3c2CNCC3)C2CCCCCC2)cc1` [Example 189, (S)-3-(4-(2-cycloheptyl-2-(1,2,3,4-tetrahydropyrrolo[1,2-a]pyrazine-8-carboxamido)acetamido)phenyl)-2,4-dimethylpyridine 1-oxide], the IC50 in assay [1] is 118 nM; in assay [2], 15.5 nM.

As to `Cc1cc[n+]([O-])c(C)c1-c1ccc(NC(=O)[C@H](Cc2ccccc2Cl)NC(=O)c2ccc3n2CCNC3)cc1` [Example 190, (S)-3-(4-(3-(2-chlorophenyl)-2-(1,2,3,4-tetrahydropyrrolo[1,2-a]pyrazine-6-carboxamido)propanamido)phenyl)-2,4-dimethylpyridine 1-oxide], the IC50 in assay [1] worked out at 123 nM; in assay [2], 278 nM.

Turning to `CC(=O)N1CCn2c(ccc2C(=O)N[C@H](C(=O)Nc2ccc(-c3c(C(F)(F)F)cc[n+]([O-])c3C)cc2)C2CCCCC2)C1` [Example 191, (S)-3-(4-(2-(2-acetyl-1,2,3,4-tetrahydropyrrolo[1,2-a]pyrazine-6-carboxamido)-2-cyclohexylacetamido)phenyl)-2-methyl-4-(trifluoromethyl)pyridine 1-oxide], the IC50 in assay [1] worked out at 128 nM; in assay [2], 18.5 nM.

As for `Cc1cc[n+]([O-])c(C)c1-c1ccc(NC(=O)[C@@H](NC(=O)c2ccnn2C)C(c2ccccc2)c2ccccc2)cc1` [Example 193, (S)-2,4-dimethyl-3-(4-(2-(1-methyl-1H-pyrazole-5-carboxamido)-3,3-diphenylpropanamido)phenyl)pyridine 1-oxide], the IC50 stood at 97.3 nM in assay [1] and 47 nM in assay [2].

Take `CC(=O)N1CCn2c(ccc2C(=O)NC(C(=O)Nc2ccc(-c3c(Cl)cc[n+]([O-])c3C)c(F)c2)[C@H]2C[C@@H]3C[C@@H]3C2)C1` (stereo partly drawn) [Example 194, 3-(4-(2-(2-acetyl-1,2,3,4-tetrahydropyrrolo[1,2-a]pyrazine-6-carboxamido)-2-((1R,3s,5S)-bicyclo[3.1.0]hexan-3-yl)acetamido)-2-fluorophenyl)-4-chloro-2-methylpyridine 1-oxide]: the IC50 in assay [1] was determined as 165 nM; in assay [2] it was 47 nM.

As for `CC(=O)N1CCn2c(ccc2C(=O)N[C@H](C(=O)Nc2ccc(-c3c(C)cc[n+]([O-])c3C)cc2F)C2CCCCCC2)C1` [Example 195, (S)-3-(4-(2-(2-acetyl-1,2,3,4-tetrahydropyrrolo[1,2-a]pyrazine-6-carboxamido)-2-cycloheptylacetamido)-3-fluorophenyl)-2,4-dimethylpyridine 1-oxide], the IC50 was 178 nM in assay [1] and 28.5 nM in assay [2].

Turning to `Cc1c(-c2ccc(NC(=O)[C@@H](NC(=O)c3ccc4n3CCNC4)C3CCC(F)(F)CC3)cc2)c(Cl)cc[n+]1[O-]` [Example 196, (S)-4-chloro-3-(4-(2-(4,4-difluorocyclohexyl)-2-(1,2,3,4-tetrahydropyrrolo[1,2-a]pyrazine-6-carboxamido)acetamido)phenyl)-2-methylpyridine 1-oxide], the IC50 was determined as 181 nM in assay [1] and 12.6 nM in assay [2].

For `Cc1cc[n+]([O-])c(C)c1-c1ccc(NC(=O)[C@@H](NC(=O)c2ccnn2C)[C@H]2CCC[C@H](F)CC2)cc1` [Example 197, 3-(4-((S)-2-((1S,4S)-4-fluorocycloheptyl)-2-(1-methyl-1H-pyrazole-5-carboxamido)acetamido)phenyl)-2,4-dimethylpyridine 1-oxide], the figures for the IC50 in assay [1] and in assay [2] were 213 nM and 121 nM, respectively.

Turning to `CC(=O)N1CCn2c(ccc2C(=O)N[C@H](C(=O)Nc2ccc(-c3c(Cl)cc[n+]([O-])c3C)cc2)C2CCCCC2)C1` [Example 199, (S)-3-(4-(2-(2-acetyl-1,2,3,4-tetrahydropyrrolo[1,2-a]pyrazine-6-carboxamido)-2-cyclohexylacetamido)phenyl)-4-chloro-2-methylpyridine 1-oxide], the IC50 amounted to 237 nM in assay [1] and 11.5 nM in assay [2].

On to `Cc1cc[n+]([O-])c(C)c1-c1ccc(NC(=O)[C@@H](NC(=O)c2ccc3n2CCNC3)C2CCC(F)CC2)cc1` (stereo partly drawn) [Example 200, 3-(4-((2S)-2-(4-fluorocyclohexyl)-2-(1,2,3,4-tetrahydropyrrolo[1,2-a]pyrazine-6-carboxamido)acetamido)phenyl)-2,4-dimethylpyridine 1-oxide], for which the IC50 in assay [1] was 246 nM; in assay [2], 416 nM.

For the compound `Cc1cc[n+]([O-])c(C)c1-c1ccc(NC(=O)C(NC(=O)c2ccc3n2CCNC3)C2CC3CC3C2)cc1` [Example 201, 3-(4-((S)-2-((1R,3r,5S)-bicyclo[3.1.0]hexan-3-yl)-2-(1,2,3,4-tetrahydropyrrolo[1,2-a]pyrazine-6-carboxamido)acetamido)phenyl)-2,4-dimethylpyridine 1-oxide], the IC50 in assay [1] turned out to be 252 nM; in assay [2] it was 61 nM.

`Cc1cc[n+]([O-])c(C)c1-c1ccc(NC(=O)[C@@H](NC(=O)c2ccc3n2CCNC3)C2CCCCCC2)cc1` [Example 202, (S)-3-(4-(2-cycloheptyl-2-(1,2,3,4-tetrahydropyrrolo[1,2-a]pyrazine-6-carboxamido)acetamido)phenyl)-2,4-dimethylpyridine 1-oxide]: the IC50 in assay [1] amounted to 257 nM; in assay [2], 73 nM.

With `Cc1c(-c2ccc(NC(=O)C(NC(=O)c3ccc4n3CCN(C)C4)C3CC4CC4C3)cc2F)c(Cl)cc[n+]1[O-]` (centres unmarked) [Example 203, 3-(4-(2-(bicyclo[3.1.0]hexan-3-yl)-2-(2-methyl-1,2,3,4-tetrahydropyrrolo[1,2-a]pyrazine-6-carboxamido)acetamido)-2-fluorophenyl)-4-chloro-2-methylpyridine 1-oxide], the values for the IC50 in assay [1] and in assay [2] were 257 nM and 39 nM, respectively.

For the compound `Cc1cc[n+]([O-])c(C)c1-c1ccc(NC(=O)C(NC(=O)c2ccc3n2CCNC3)C2CC3CC3C2)cc1` [Example 204, 3-(4-((S)-2-((1R,3s,5S)-bicyclo[3.1.0]hexan-3-yl)-2-(1,2,3,4-tetrahydropyrrolo[1,2-a]pyrazine-6-carboxamido)acetamido)phenyl)-2,4-dimethylpyridine 1-oxide], the IC50 in assay [1] was determined as 278 nM; in assay [2], 95 nM.

In the case of `Cc1cc[n+]([O-])c(C)c1-c1ccc(NC(=O)[C@@H](NC(=O)c2ccc3n2CCNC3)C2CCCCC2)cc1` [Example 205, (S)-3-(4-(2-cyclohexyl-2-(1,2,3,4-tetrahydropyrrolo[1,2-a]pyrazine-6-carboxamido)acetamido)phenyl)-2,4-dimethylpyridine 1-oxide], the IC50 in assay [1] is 287 nM; in assay [2], 58 nM.

With `Cc1c(-c2ccc(NC(=O)[C@@H](NC(=O)c3ccc4n3CCNC4)C3CCCCC3)cc2)c(Cl)cc[n+]1[O-]` [Example 206, (S)-4-chloro-3-(4-(2-cyclohexyl-2-(1,2,3,4-tetrahydropyrrolo[1,2-a]pyrazine-6-carboxamido)acetamido)phenyl)-2-methylpyridine 1-oxide], the IC50 in assay [1] stood at 296 nM; in assay [2], 63 nM.
